From publication PMC6298966, “HAI Peptide and Backbone Analogs—Validation and Enhancement of Biostability and Bioactivity of BBB Shuttles” (Scientific Reports, 2018)
Like-named read-outs stand apart in the source and are kept apart here. Residues, ends and D or L forms follow the SMILES beside them.

Experiments:
[1] = tested on: in vitro bovine BBB model; assay: In vitro bovine BBB cell-based model assay; details: for BBB T (%): 200 μM, RP-HPLC
Procedure: (§2) In these models, two compartments are separated by a membrane containing a monolayer of endothelial cells which mimics either the intestinal barrier or the BBB. One compartment contains the peptide, which is incubated for 2 h. The amount of peptide in each compartment is then analyzed to determine apparent permeability (Papp, in cm/s) and transport (T, in %). The integrity of the compound in the acceptor compartment is assessed by mass spectrometry (MS).
(§3) This assay was an adapted model[10] of the method previously published by Gaillard and de Boer[52]. Briefly, TEER was measured in all transwells (TEER > 100 Ω·cm^2), before performing the assay. […] The apical compartment was filled with 200 μL of the solution containing the peptide, and 800 µL of Ringer-HEPES was poured into the basal well. Three replicates of each peptide were assayed. The plate was left for 2 h in the incubator at 37 °C. Finally, the samples were collected and analyzed or frozen until analysis. LY fluorescence was measured in a 96-well plate with a Fluoroskan Ascent Microplate Fluorometer (Thermo Fisher Scientific).
(§4) In vitro Transport of AuNPs in using a Bovine BBB Cell-Based Model Assay. To assess the
(§5) capacity of HAI to cross the BBB, this peptide was conjugated to AuNPs and then assay ed in an in
vitro BBB cell-based model.

[2] = In vitro bovine BBB cell-based model assay; details: BBB Papp, 200 μM, RP-HPLC; for Papp at 2 h, 200 μM: bovine
Procedure: as §2, §3, §4, §5
vitro BBB cell-based model.

Caco-2 cells [3] = assay: Caco-2 intestinal barrier model assay; details: for Caco-2 T (%): Table 1; for Caco-2 T (%) / Caco-2 transport: 2 h at 37 °C, HBSS, 50 μM, RP-HPLC; for Detection by MALDI-TOF MS in acceptor wells: Caco-2 assay, after 2 h; for Caco-2 transport: Table 2
Procedure: (§6) In a subsequent step we evaluated the transport capacity of these peptides using two in vitro barrier models, namely in an intestine (Caco-2 assay)[41] and a BBB model[39],[40] […] In these models, two compartments are separated by a membrane containing a monolayer of endothelial cells which mimics either the intestinal barrier or the BBB. One compartment contains the peptide, which is incubated for 2 h. The amount of peptide in each compartment is then analyzed to determine apparent permeability (Papp, in cm/s) and transport (T, in %). The integrity of the compound in the acceptor compartment is assessed by mass spectrometry (MS).
(§7) The ability of peptides to overcome the intestinal barrier was tested using Caco-2 cells. […] Briefly, experiments were done with cells (passage between 60 and 80) seeded on 4.67 cm^2 filters at a density of 5.25·10^4 cell/cm^2. Peptides dissolved in HBSS were incubated for 2 h at a 50 μM concentration with cell layers at 37 °C and 5% CO2. After the experiment, the content of each compartment was directly analyzed by HPLC and then transport (in %) and Papp were determined.

Caco-2 cells [4] = tested on: Caco-2 cells
Procedure: as §6, §7

[5] = tested on: in vitro bovine BBB model
Procedure: as §2, §3, §4, §5
vitro BBB cell-based model.

in vitro = details: bovine
Procedure: as §2, §3, §4, §5
vitro BBB cell-based model.

[6] = tested on: bovine brain endothelial cells (BBECs); assay: Internalization of Cf-labeled peptides by BBECs (CLSM, flow cytometry); assay type: cell-based; details: for Internalization profile among candidates: Cf-labeled peptides 50 μM (R8 15 μM); for Internalization profile among candidates / Internalization with respect to the parent version (HAI): 3 h, 37 °C; for Internalization with respect to the parent version (HAI): 50 μM
rat astrocytes [7] = assay: Internalization of Cf-labeled peptides by rat astrocytes (CLSM, flow cytometry); assay type: cell-based; details: for Internalization profile among candidates: Cf-labeled peptides 50 μM (R8 15 μM); for Internalization profile among candidates / Internalization with respect to the parent version (HAI): 3 h, 37 °C; for Internalization with respect to the parent version (HAI): 50 μM
[8] = Peptide stability in human serum; assay type: in vitro ADME; details: male, human serum diluted with HBSS, 24 h, RP-HPLC; for half-life: human serum
Procedure: Nevertheless, peptides formed by L-amino acids have a short in vivo half-life in serum, which can reduce their potential bioactivity. The sensitivity of this peptide to proteases was tested at a concentration of 150 μM in HBSS/human serum 90:10 (v/v) for 24 h. At several time points, an aliquot was extracted, precipitated serum proteins with MeOH and then analyzed by RP-HPLC.
Peptides were dissolved in 1 mL of HBSS buffer/human serum (from human male AB plasma; Sigma-Aldrich) 10:90 (v/v) at a final concentration of 200 µM and incubated at 37 °C for 24 h. Aliquots of 50 µL were extracted at a range of incubation times and treated with 200 µL of cold CH3OH (4 °C) to precipitate serum proteins. After 30 min, samples were centrifuged at 13,000 g and 4 °C for 30 min. Supernatants were analyzed by RP-HPLC-PDA and MALDI-TOF MS, using similar procedures as for the quantification of the in vitro cell-based BBB model.

in vitro human BBB model = assay: In vitro human BBB cell-based model assay; assay type: in vitro ADME; details: 50, 250 and 1250 μM
Procedure: The discrepancy between internalization and transport of (NMe)HAI is probably due to an increase in lipophilicity after methylation of the backbone, thereby enhancing internalization by passive diffusion but not favoring the transcytosis. To ensure that rD-HAI crosses the BBB through active transport, we proceeded to test its mechanism of transport using a human model of the BBB.
This assay was performed using the model published by Cecchelli and co-workers[53]. Endothelial cells and pericytes were defrosted in gelatin-coated Petri dishes (Corning). Pericytes and endothelial cells were cultured in DMEM pH 6.8 or in supplemented endothelial cell growth medium (Sciencells), respectively. After 48 h, pericytes (50,000 cells/well) and endothelial cells (80,000 cells/well) were seeded in gelatin-coated 12-well plates or in Matrigel-coated 12-well Transwell inserts (Corning), respectively. Medium was changed every 2–3 days and assays were performed 7–8 days after seeding. […] […] Then, 500 µL of the compound and 1,500 µL of Ringer-HEPES alone were introduced in the apical or in the basolateral compartments, respectively. The plates were set on at 37 °C for 2 h. The solutions from both compartments were then recovered and quantified by HPLC and identified by MALDI-TOF.

[9] = Caco-2 intestinal barrier model assay; details: human, Caco-2
Procedure: as §6, §7

rat astrocytes [10] = assay: MTT toxicity assay in rat astrocytes; assay type: cell-based; details: 50 μM, 24 h
Procedure: (§1) The assay was performed in 96-well plates, adding 3,150 cells to each well in 100 μL (immortalized cell line –i.e. BBECs) or 7,000 cells in 100 μL (primary cultures –i.e. rat astrocytes), seeded 24 h before performing the experiment. Cells were incubated with each peptide at a range of concentrations (20, 50 and 500 μM) in cellular medium for 24 h at 37 °C and 5% CO2. After 22 h, MTT (3-(4,5-dimethylthiazol-2-yl)−2,5-diphenyltetrazolium bromide) was added to a final concentration of 0.5 mg/mL. The cells with peptides and MTT were incubated for further 2 h. The medium was then discarded and 200 μL of 2-propanol was added to each well to dissolve the purple formazan, product of the conversion of MTT by the mitochondrial enzyme […]. The plate was kept in an orbital shaker for 30 min (15 rpm) to ensure the complete dissolution of formazan. Finally, absorbance was measured at 570 nm and cell viability percentages were calculated dividing the absorbance value of cells treated with a given peptide by the absorbance value of untreated cells. Experiments for each peptide were carried out by triplicate. Cells incubated with 1% SDS were used as control of 0% viability (value subtracted to all samples before viability calculus per each peptide).

[11] = tested on: bovine brain endothelial cells (BBECs); assay: MTT toxicity assay in BBECs; assay type: cell-based; details: 50 μM, 24 h
Procedure: as §1

CC(C)C[C@H](NC(=O)[C@@H](N)C(C)C)C(=O)N[C@@H](CCCNC(=N)N)C(=O)N1CCC[C@H]1C(=O)N1CCC[C@H]1C(=O)N1CCC[C@H]1C(=O)N[C@H](C(=O)N[C@@H](CC(C)C)C(=O)N[C@@H](CCCNC(=N)N)C(=O)N1CCC[C@H]1C(=O)N1CCC[C@H]1C(=O)N1CCC[C@H]1C(=O)N[C@H](C(=O)N[C@@H](CC(C)C)C(=O)N[C@@H](CCCNC(=N)N)C(=O)N1CCC[C@H]1C(=O)N1CCC[C@H]1C(=O)N1CCC[C@H]1C(=O)O)C(C)C)C(C)C [SAP, H-(VLRPPP)3-OH] (H-VLRPPPVLRPPPVLRPPP-OH)
BBB T (%) ([1]; Table 1, 2 h at 37 °C): 5 ± 3%
Papp at 2 h, 200 μM ([2]; Table 1, 2 h at 37 °C): 5.5 ± 1.5 ×10⁻⁶ cm/s
Caco-2 T (%) (Caco-2 cells [3]): 0%

CC[C@H](C)[C@H](NC(=O)[C@H](CC(=O)O)NC(=O)[C@H](CS)NC(=O)[C@@H]1CCCN1C(=O)[C@@H](NC(=O)CNC(=O)[C@@H]1CCCN1C(=O)[C@H](CCCNC(=N)N)NC(=O)[C@@H]1CCCN1C(=O)[C@H](CC(N)=O)NC(=O)[C@H](CCC(=O)O)NC(=O)[C@@H]1CCCN1C(=O)[C@H](CCSC)NC(=O)[C@H](Cc1c[nH]c2ccccc12)NC(=O)[C@@H](NC(=O)[C@@H](NC(=O)[C@@H](N)Cc1ccc(O)cc1)[C@@H](C)O)[C@@H](C)CC)[C@@H](C)O)C(=O)N[C@@H](Cc1ccccc1)C(=O)N[C@H](C(=O)N[C@@H](CC(N)=O)C(=O)N[C@@H](CO)C(=O)N[C@@H](CCCNC(=N)N)C(=O)NCC(=O)N[C@@H](CCCCN)C(=O)N[C@@H](CCCNC(=N)N)C(=O)N[C@@H](C)C(=O)N[C@@H](CO)C(=O)N[C@@H](CC(N)=O)C(=O)NCC(=O)O)[C@@H](C)O [RVG]
Caco-2 Papp (Caco-2 cells [4]): 0 ×10⁻⁶ cm/s
Caco-2 T (%) (Caco-2 cells [4]): 0%
BBB T (%) [5]: 0.29 ± 0.03%
Papp (in vitro): 0.28 ± 0.02 ×10⁻⁶ cm/s

TAT: HIV TAT 48–57 peptide, derived from the transcriptional trans-activator protein of HIV-1; cell-penetrating peptide (GRKKRRQRRR; UniProt P04608 48-57, looked up, fragment)
BBB T (%) ([1]; Table 1, 2 h at 37 °C): 0%
Detection by MALDI-TOF MS in acceptor wells ([1]; after 2 h): not detected
Internalization profile among candidates [6]: highest internalization profiles
Internalization profile among candidates (rat astrocytes [7]): highest internalization profiles
Caco-2 T (%) (Caco-2 cells [3]): 0%

N=C(N)NCCC[C@H](NC(=O)[C@H](CCCNC(=N)N)NC(=O)[C@H](CCCNC(=N)N)NC(=O)[C@H](CCCNC(=N)N)NC(=O)[C@H](CCCNC(=N)N)NC(=O)[C@H](CCCNC(=N)N)NC(=O)[C@H](CCCNC(=N)N)NC(=O)[C@@H](N)CCCNC(=N)N)C(=O)O [Peptide R8]
BBB T (%) ([1]; Table 1, 2 h at 37 °C): 0.68 ± 0.07%
Papp ([2]; Table 1, 2 h at 37 °C): 0.6 ± 0.06 ×10⁻⁶ cm/s
Internalization profile among candidates [6]: highest internalization profiles
Internalization profile among candidates (rat astrocytes [7]): highest internalization profiles
Detection by MALDI-TOF MS in acceptor wells (Caco-2 cells [3]): detected
Caco-2 T (%) (Caco-2 cells [3]): 0%

CC[C@H](C)[C@@H](C(=O)N(C)[C@@H](Cc1ccc(O)cc1)C(=O)N1CCC[C@H]1C(=O)N[C@@H](CCCNC(=N)N)C(=O)N(C)[C@@H](Cc1c[nH]cn1)C(N)=O)N(C)C(=O)[C@H](C)NC(=O)[C@@H](N)Cc1c[nH]cn1 [(NMe)HAI, H-HA(NMe)I(NMe)YPR(NMe)H-NH2]
BBB T (%) ([1]; Table 2, 2 h at 37 °C): 13.9 ± 1.6%
Papp at 2 h, 200 μM ([2]; Table 2, 2 h at 37 °C): 11.7 ± 1.3 ×10⁻⁶ cm/s
Internalization with respect to the parent version (HAI) [6]: two-fold increase in internalization
Internalization with respect to the parent version (HAI) (rat astrocytes [7]): two-fold increase in internalization
half-life [8]: > 24 h
Caco-2 transport (Caco-2 cells [3]): 0.200 ± 0.003

CC[C@@H](C)[C@@H](NC(=O)[C@@H](Cc1ccc(O)cc1)NC(=O)[C@H]1CCCN1C(=O)[C@@H](CCCNC(=N)N)NC(=O)[C@H](N)Cc1c[nH]cn1)C(=O)N[C@H](C)C(=O)N[C@H](Cc1c[nH]cn1)C(N)=O [rD-HAI, H-hrpyiah-NH2]
BBB T (%) ([1]; Table 2, 2 h at 37 °C): 17 ± 3%
BBB transport rate relative to the parent version ([1]; vs HAI): around 1.5 times
Papp at 2 h, 200 μM ([2]; Table 2, 2 h at 37 °C): 14 ± 2 ×10⁻⁶ cm/s
Transport at increasing concentrations (in vitro human BBB model): saturation of transport
Internalization with respect to the parent version (HAI) [6]: maintained the internalization rate
Internalization with respect to the parent version (HAI) (rat astrocytes [7]): maintained the internalization rate
half-life [8]: > 24 h
Caco-2 transport (Caco-2 cells [3]): 0.4 ± 0.3
Papp at 2 h, 50 μM [9]: 0.00012 ± 0.0001 ×10⁻⁶ cm/s

Penetratin
Internalization profile among candidates [6]: highest internalization profiles
Internalization profile among candidates (rat astrocytes [7]): highest internalization profiles

CC[C@H](C)[C@H](NC(=O)[C@H](C)NC(=O)[C@@H](N)Cc1c[nH]cn1)C(=O)N[C@@H](Cc1ccc(O)cc1)C(=O)N1CCC[C@H]1C(=O)N[C@@H](CCCNC(=N)N)C(=O)N[C@@H](Cc1c[nH]cn1)C(N)=O [HAI, H-HAIYPRH-NH2]
BBB T (%) ([1]; Table 1, 2 h at 37 °C): 16 ± 3%
BBB T (%) ([1]; Table 2, 2 h at 37 °C): 10 ± 3%
Papp at 2 h, 200 μM ([2]; Table 1, 2 h at 37 °C): 18 ± 2 ×10⁻⁶ cm/s
Papp at 2 h, 200 μM ([2]; Table 2, 2 h at 37 °C): 9 ± 5 ×10⁻⁶ cm/s
Internalization in presence of transferrin (Tf) ([6]; Cf-HAI 50 μM, flow cytometry): promoted by the addition of Tf
Internalization at increasing concentrations of peptide ([6]; range of concentrations of Cf-HAI): saturation of internalization
Toxicity (MTT assay) (rat astrocytes [10]): not toxic
Toxicity (MTT assay) [11]: not toxic
Internalization in presence of transferrin (Tf) (rat astrocytes [7]; Cf-HAI 50 μM, flow cytometry): promoted by the addition of Tf
half-life at 150 μM ([8]; 150 μM in HBSS/human serum 90:10 (v/v)): ~5 min
Detection by MALDI-TOF MS in acceptor wells (Caco-2 cells [3]): detected
Caco-2 T (%) (Caco-2 cells [3]): 0.7 ± 0.3%
Caco-2 transport (Caco-2 cells [3]): 0.7 ± 0.3
Papp at 2 h, 50 μM [9]: 0.0002 ± 8e-05 ×10⁻⁶ cm/s
